This is an account of results in US9487462B2, “Inhibitors of matrix metalloproteinases” (PharmaHungary 2000 Kft., priority 2010, dated 2016).

Data set [1] deals with T1, MMP13 (Homo sapiens (Human), UniProt P45452). Description: MMP activity assay (fluorogenic substrate), MMP13 catalytic domain. It counts as biochemical. The protocol: (§1) MMP activity assays were conducted as follows: MMP2, MMP9, MMP13 catalytic domain was expressed in E. coli in form of inclusion bodies followed by refolding and purification.
(§2) The Protocol of the Activity Assay:
Stock solution of substrate (Mca-Lys-Pro-Leu-Gly-Leu-Dpa-Ala-Arg-NH2) was prepared in DMSO at a concentration of 6 mM. Assays were performed in an assay buffer (50 mM Tris pH 7.5, 300 mM NaCl, 10 μM ZnSO4, 5 mM CaCl2, 0.005% Brij-35). The final DMSO concentration in all assays was 1.0%. […] The assays were carried out at 37° C. […] The reaction mixtures were preincubated with the inhibitors for 30 minutes. The reactions were started by the addition of MMP substrate, and the fluorescence intensity changes were measured after 60 minutes. The obtained fluorescence values were normalized and % inhibition values calculated. Dose response curves were determined from 6 concentration points using three fold dilution steps, each concentration point was determined in duplicate. IC50 values were calculated from the dose response curves.

Data set [2] relates to neonatal rat cardiac myocytes. Description: Cytoprotective effect in cardiac myocytes subjected to hypoxia and reoxygenation. Format: cell-based. As for the experimental part: Neonatal rat hearts were digested and isolated cardiomyocytes were plated onto 24-well plastic plates at […]. The cells were maintained at 37° C. in a humidified atmosphere of 5% CO2 and 95% air in a CO2 incubator until confluence was reached. Cultures at day 3 were used for treatments. Cells were kept under normoxic or simulated ischemic conditions, i.e. the growth medium was changed to a normoxic or hypoxic solution and the cells were incubated under 95% air and 5% CO2 or 95% N2 and 5% CO2 at 37° C. for 4 h, respectively as described in detail (Gorbe A, Giricz Z, Szunyog A, Csont T, Burley D S, Baxter G F, Ferdinandy P. Role of cGMP-PKG signaling in the protection of neonatal rat cardiac myocytes subjected to simulated ischemia/reoxygenation. Basic Res Cardiol. 105:643-650, 2010). The positive control ilomastate (0.5 microM) and MMP-inhibitors at different effective concentrations (EC 5, EC 10, EC 20, and EC50 as determined in previous test examples) were applied during normoxia or simulated ischemia and also during reoxygenation. The vehicle was DMSO. Cell viability was determined after Calcein A M fluorescent staining as described (Karliner J S, Honbo N, Summers K, Gray M O, Goetzl E J. The lysophospholipids sphingosine-1-phosphate and lysophosphatidic acid enhance survival during hypoxia in neonatal rat cardiac myocytes. J Mol Cell Cardiol, 33:1713-7, 2001). Total cell count was determined after digitonin treatment to permeabilize the cells by using propidium iodine fluorescent staining (Roy S S, Hajnoczky G. Calcium, mitochondria and apoptosis studied by fluorescence measurements. Methods. 46:213-223, 2008).

Data set [3] in a line: Cytotoxicity, alamarBlue viability, HCT116. Format: cell-based. The following applies: human, HCT116 colon tumor cells, 48 hours incubation, read-out: HCT116 LC50. The protocol: (§3) Beside the inhibitory effect on MMPs we tested the cytotoxicity of the selected compounds. These measurements were done in parallel on two cell lines. One of them was the healthy human fibroblast cell line MRC-5 while the other was the human colon tumor cell line HCT116. The viability of the cells was monitored using alamarBlue. This dye is reduced by the cells resulting in an increased fluorescent signal which is proportional to the number of living cells. Cells were incubated with the dilutions of the tested compounds for 48 hours then alamarBlue was added to them for 4 hours. After that the fluorescence changes were detected using excitation at 540 nm and emission wavelength of 590 nm by a Wallac 1420 Microplate Reader. IC50 values were determined for the compounds using six concentrations and duplicate points for each concentration.

Data set [4] concerns the target T1, MMP13. Description: In vitro zymography assay (gelatin), MMP-13. Format: biochemical. The conditions noted are these: % ± SD; for % inhibition MMP-13 (50 kDa): 1 μM; for inhibition at 100 µM: read-out: % inhibition MMP-13 (50 kDa). As for the experimental part: (§4) MMP-2 and MMP-9 enzymes were isolated from rat hearts and from rat spleen while human, recombinant MMP-1 and MMP-13 enzymes used were commercial. MMP-2, -9, -13 enzymes were separated by electrophoresis during non-reducing conditions on 8% SDS-polyacrylamide gels copolymerized with 2 mg/ml gelatin from porcine skin (Sigma Aldrich) while MMP-1 was separated under the same conditions on 8% SDS-polyacrylamide gels copolymerized with 2 mg/ml casein (Sigma Aldrich). […] In case of MMP-13 p-aminophenylmercuric acetate (APMA) was used for enzyme activation at 37° C. for 30 min. After electrophoresis, gels were washed in 2.5% Triton-X 100 with agitation and then incubated for 20 hrs at 37° C. in enzyme incubation buffer (50 mM Tris-HCl, pH 7.5, containing 5 mM CaCl2, 200 mM NaCl) with or without MMP inhibitor. Zymographic gels were stained in Coomassie Brilliant Blue R-250 and de-stained. Gelatin and casein zymograms were scanned. MMP activity is detected as a white zone on a blue background and the clear bands in the gel can be quantified by densitometry. The obtained density values were measured and % inhibition values calculated (Kupai et al., 2010). The table below summarizes the prescreen inhibition values determined for different MMP inhibitors on MMP1, -2, -9, -13.

Data set [5] has as its target T2, MMP1 (Homo sapiens (Human), UniProt P03956). Description: MMP activity assay (fluorogenic substrate), MMP1. Format: biochemical. The conditions noted are these: Table 2; read-out: MM1 IC50.
Target sequence in this assay (P03956 100-469, species assumed): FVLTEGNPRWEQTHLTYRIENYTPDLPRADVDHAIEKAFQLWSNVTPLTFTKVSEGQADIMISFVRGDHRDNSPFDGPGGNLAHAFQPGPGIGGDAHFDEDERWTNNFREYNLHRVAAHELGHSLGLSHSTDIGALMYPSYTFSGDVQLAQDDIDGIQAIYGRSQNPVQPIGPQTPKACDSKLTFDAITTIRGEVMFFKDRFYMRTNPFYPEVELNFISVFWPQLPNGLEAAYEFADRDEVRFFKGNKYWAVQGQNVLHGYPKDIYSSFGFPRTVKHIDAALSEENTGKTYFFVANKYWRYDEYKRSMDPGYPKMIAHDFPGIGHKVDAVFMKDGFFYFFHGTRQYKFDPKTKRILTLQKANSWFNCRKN
In the next data set the target is MMP2 (Homo sapiens, UniProt P08253). Kind of data set: MMP activity assay (fluorogenic substrate), MMP2 catalytic domain. It counts as biochemical. The following applies: Table 2; read-out: MMP2 IC50. The protocol:
as §1, §2
(§5) Stock solution of substrate (Mca-Lys-Pro-Leu-Gly-Leu-Dpa-Ala-Arg-NH2) was prepared in DMSO at a concentration of 6 mM. Assays were performed in an assay buffer (50 mM Tris pH 7.5, 300 mM NaCl, 10 μM ZnSO4, 5 mM CaCl2, 0.005% Brij-35). The final DMSO concentration in all assays was 1.0%. […] The assays were carried out at 37° C. The fluorescence changes, resulting from the substrate cleavage, were detected using excitation at 340 nm and emission wavelength of 405 nm using a Wallac 1420 Microplate Reader. The reaction mixtures were preincubated with the inhibitors for 30 minutes. The reactions were started by the addition of MMP substrate, and the fluorescence intensity changes were measured after 60 minutes. The obtained fluorescence values were normalized and % inhibition values calculated. Dose response curves were determined from 6 concentration points using three fold dilution steps, each concentration point was determined in duplicate. IC50 values were calculated from the dose response curves.

Data set [6] is described as follows: Cytotoxicity, alamarBlue viability, MRC-5. Format: cell-based. The following applies: human, MRC-5 fibroblast cells, 48 hours incubation, read-out: MRC-5 LC50. As for the experimental part: as §3
The target of a further data set is MMP9 (Homo sapiens, UniProt P14780). Kind of data set: MMP activity assay (fluorogenic substrate), MMP9 catalytic domain. It counts as biochemical. The conditions noted are these: Table 2. As for the experimental part: as §1, §2, §5
The next data set has as its target MMP-2 (Rattus norvegicus (Rat), UniProt P33436). Kind of data set: In vitro zymography assay (gelatin), MMP-2. Format: biochemical. As for the experimental part: as §4
Data set [7] has as its target T2, MMP1. Description: In vitro zymography assay (casein), MMP-1. The conditions noted are these: % ± SD. It counts as biochemical. As for the experimental part:
as §4
Target sequence in this assay (P03956 100-469): as the sequence (P03956 100-469, species assumed) above

Setting [8] is: % ± SD, read-out: % inhibition MMP-2 (72 kDa).

Like-named read-outs stand apart in the source and are kept apart here. Some results are limits rather than exact numbers.

MMP-2, sequence (P33436 110-662): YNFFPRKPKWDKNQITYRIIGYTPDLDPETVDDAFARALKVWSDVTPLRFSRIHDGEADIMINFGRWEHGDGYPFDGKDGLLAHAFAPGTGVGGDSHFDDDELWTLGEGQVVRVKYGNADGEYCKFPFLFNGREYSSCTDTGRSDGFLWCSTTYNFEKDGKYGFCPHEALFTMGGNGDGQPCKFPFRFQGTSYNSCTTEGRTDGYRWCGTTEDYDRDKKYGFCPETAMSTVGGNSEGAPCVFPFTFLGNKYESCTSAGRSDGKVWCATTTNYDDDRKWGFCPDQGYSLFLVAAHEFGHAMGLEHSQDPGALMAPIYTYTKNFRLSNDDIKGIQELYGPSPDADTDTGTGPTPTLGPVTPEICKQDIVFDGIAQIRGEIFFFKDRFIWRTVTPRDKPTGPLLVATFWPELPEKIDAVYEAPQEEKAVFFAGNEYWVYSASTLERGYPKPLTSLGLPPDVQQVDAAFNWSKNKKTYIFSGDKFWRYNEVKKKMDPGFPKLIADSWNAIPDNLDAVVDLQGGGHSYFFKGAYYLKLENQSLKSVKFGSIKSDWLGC

As to `O=C(O)c1csc(CN(Cc2ccc(OCc3cccnc3)cc2)Cc2cccnc2)n1` [Compound 10, 2-[({[4-(Pyridin-3-ylmethoxy)phenyl]methyl}(pyridin-3-ylmethyl)amino)methyl]-1,3-thiazole-4-carboxylic acid], the 50% inhibitory concentration (IC50) was 1.5 µM on MMP13 [1] (Table 2, read-out: MMP13 IC50); over 500 µM at MMP1 [5]; over 500 µM at MMP2; over 500 µM against MMP9. Moreover, the “Cytoprotective effect, % cell survival as compared to vehicle DMSO” value was 112 ± 3 % in data set [2] (normoxia, EC5 concentration 0.3 microM); 112 ± 1 % in data set [2] (normoxia, EC10 concentration 1.0 microM); 115 ± 3 % in data set [2] (normoxia, EC20 concentration 3.0 microM); 108 ± 1% in [2] (normoxia, EC50 concentration 9.0 microM); 117 ± 2 % in [2] (simulated ischemia, EC5 concentration 0.3 microM); 119 ± 2 % in data set [2] (simulated ischemia, EC10 concentration 1.0 microM). Moreover, the “Cytoprotective effect, % cell survival as compared to vehicle DMSO” value in data set [2] (simulated ischemia, EC20 concentration 3.0 microM) is given as 123 ± 6 %; in data set [2] (simulated ischemia, EC50 concentration 9.0 microM), 136 ± 2 %. Also, the CC50 at 48 h in data set [3] and in [6] was 20 µM in each case. For the same molecule, on MMP13 [4], the “% inhibition MMP-13 (50 kDa)” value was “No inhibition”. Also, the inhibition at 100 µM on MMP13 [4] stood at 53.6 ± 18.9%.
For `O=C(O)c1csc(CN(Cc2ccc(OCc3ccccc3)cc2)Cc2cccnc2)n1` [Compound 14, 2-[({[4-(Benzyloxy)phenyl]methyl}(pyridin-3-ylmethyl)amino)methyl]-1,3-thiazole-4-carboxylic acid], the half-maximal inhibitory concentration (IC50) at MMP13 [1] (Table 2, read-out: MMP13 IC50) is 8 µM; at MMP1 [5], 240 µM; on MMP2, 90 µM; against MMP9, over 500 µM. For the same molecule, the “% inhibition MMP-2 (72 kDa)” value on MMP-2 (1 μM, % ± SD) is given as “No nhibiton”. The inhibition at 100 µM at MMP-2 (setting [8]) was 100%. Moreover, the results for the CC50 at 48 h in data set [3] and in data set [6] were 19 µM and 42 µM, respectively.
As to `O=C(O)c1csc(CN(Cc2ccc(OCc3ccccc3)cc2)Cc2cccc(F)c2)n1` [Compound 5, 2-[({[4-(Benzyloxy)phenyl]methyl}[(3-fluorophenyl)methyl]amino)methyl]-1,3-thiazole-4-carboxylic acid], the IC50 on MMP13 [1] (Table 2, read-out: MMP13 IC50) came out at 4.7 µM; on MMP1 [5], 6 µM; on MMP2 it was 25 µM; against MMP9, 9.8 µM. In addition, the “% inhibition MMP-2 (72 kDa)” value at MMP-2 (1 μM, % ± SD) was “No inhibition”. Besides, the inhibition at 100 µM at MMP-2 (setting [8]) worked out at 11.1 ± 1.58%. Further, the CC50 at 48 h in data set [3] is 3.5 µM; in [6], 43 µM.
Take `O=C(O)c1csc(CN(Cc2ccc(OCc3ccncc3)cc2)Cc2cccnc2)n1` [Compound 12, 2-{[(Pyridin-3-ylmethyl)({[4-(pyridin-4-ylmethoxy)phenyl]methyl})amino]methyl}-1,3-thiazole-4-carboxylic acid]: the IC50 is 8.5 µM on MMP13 [1] (Table 2, read-out: MMP13 IC50); over 500 µM at MMP1 [5]; over 500 µM on MMP2; over 500 µM at MMP9. Further, the inhibition at 1 µM at MMP-2 (1 μM, % ± SD, read-out: % inhibition MMP-2 (72 kDa)) turned out to be 5.59 ± 11.8%. Further, the inhibition at 100 µM at MMP-2 (setting [8]) is 4.78 ± 7.18%. The CC50 at 48 h is 37 µM in data set [3] and 90 µM in data set [6].
With `O=C(O)c1c[nH]c(CN(Cc2ccc(F)cc2)Cc2ccc(OCc3ccccc3)cc2)n1` [Compound 30, 2-[({[4-(Benzyloxy)phenyl]methyl}[(4-fluorophenyl)methyl]amino)methyl]-1H-imidazole-4-carboxylic acid], the half-inhibitory concentration (IC50) is 1.76 µM at MMP13 [1] (Table 2, read-out: MMP13 IC50); 0.081 µM at MMP-2 (zymography, Table 8, read-out: IC50 on MMP-2); 3.9 µM at MMP1 [5]; 6.6 µM on MMP2; 13 µM on MMP9. Moreover, the “% inhibition MMP-2 (72 kDa)” value on MMP-2 (1 μM, % ± SD) is recorded as “No inhibition”. In addition, the inhibition at 100 µM came out at 100% on MMP-2 (setting [8]), 63.4 ± 18.3% at MMP1 [7] (read-out: % inhibition MMP-1 (52 kDa)) and 61.1 ± 6.78% at MMP1 [7] (read-out: % inhibition MMP-1 (55 kDa)). For the same molecule, the CC50 at 48 h in data set [3] was 6 µM; in data set [6], 30 µM. For the same molecule, the “% inhibition MMP-1 (52 kDa)” value on MMP1 [7] (1 μM) is “No inhibition”. Also, the “% inhibition MMP-1 (55 kDa)” value at MMP1 [7] (1 μM) is reported as “No inhibition”.
Regarding `CNC(=O)[C@H](Cc1c[nH]c2ccccc12)NC(=O)[C@@H](CC(=O)NO)CC(C)C` [ilomastat, reference compound], the IC50 came to 0.0002 µM at MMP13 [1] (read-out: IC50 on MMP13) and 0.00071 µM on MMP-2. Besides, the “cytoprotective effect as compared to vehicle-treated cells” value in data set [2] (positive control, 0.5 microM) is on record as “approximately 120%”.
As to `O=C(O)c1c[nH]c(CN(Cc2ccc(F)cc2)Cc2ccc(OC(c3ccccc3)c3ccccc3)cc2)n1` [Compound 22, 2-[({[4-(Diphenylmethoxy)phenyl]methyl}[(4-fluorophenyl)methyl]amino)methyl]-1H-imidazole-4-carboxylic acid], the concentration for half-maximal inhibition (IC50) at MMP13 [1] (Table 2, read-out: MMP13 IC50) is 0.28 µM; at MMP1 [5], 16 µM; on MMP2, 35 µM; on MMP9 it was 8 µM. In addition, the CC50 at 48 h worked out at 0.7 µM in data set [3] and 2 µM in data set [6]. The “% inhibition MMP-13 (50 kDa)” value at MMP13 [4] was “No inhibition”. In addition, the inhibition at 100 µM at MMP13 [4] came out at 71.7 ± 4.49%.
